Measurements reported in patent EP0497921B1, “METHOD FOR INHIBITING ENZYMATIC SYNTHESIS OF NUCLEIC ACIDS USING ISOPSORALENS” (ISAACS, Stephen T., priority 1989, dated 1991).
Marks after values point to notes of the source that are not given here.

How the values were obtained:
[1] = Solubility of photoreactive compounds in 1 X TE (optical density of filtrate); type: physicochemical; conditions: 1 x te
Description: The solubilities of AMIP, AMDMIP, DMIP, MIP and isopsoralen (IP) were determined experimentally according to the scheme set forth in Figure 5. To perform the solubility measurement, it was first necessary to establish known optical densities for a 1 µg/ml solution of each compound. These were determined by preparing either ethanolic or aqueous stocks of each compound at known concentrations in 1 x TE, then measuring the optical density of each solution. From this information, the absorption of a 1 µg/ml solution was computed. Alternatively, the extinction coefficient may be thus determined and used in the same fashion. In this manner, the following absorption data was collected:
Following this step, undissolved compound was removed by filtration using a 0.2 u nylon-66 syringe filter (Arco LC13; Gelman). The concentration of the remaining soluble compound was then determined by measuring the optical density of the filtrate and computing the solubility from the known optical density of a 1 µg/ml solution of that compound. The solubility of the compounds was thus determined to be as follows: […]

500-mer = assay: Post-amplification sterilization: isopsoralen plus irradiation, reamplification of carryover; type: biochemical, lambda; conditions: CE-III 15 minutes, 500-mer PCR product, 30 cycles
Description: The two PCR targets used in these experiments were a 115-mer (SK-38/SK-39 HIV system) and a 500-mer. The 500-mer target is obtained from a PCR amplification of a lambda plasmid with primers PCR 01/02. This system is provided by Cetus/Perkin Elmer as a control in their commercial kits of PCR reagents (Catalogue No. N801-0055). For both of these systems equivalent copy numbers of each target were prepared in the following manner: An initial 30 cycle PCR reaction was carried out for each system with the appropriate primers and targets. Aliquots (approximately 10^5-10^6 target copies) of each of these reactions were transferred to a second set of PCR reactions. These second sets of PCR amplifications were carried out in the presence of α-^32P-dCTP, again for 30 cycles. Aliquots of these reactions were removed and counted by liquid scintillation counting. With these numbers, the specific activity of the α-32P-dCTP, and the sequence of each of the PCR product oligonucleotides (115-mer and 500-mer), the concentrations of each of the two PCR product oligonucleotides in the second set of PCR reaction tubes was determined. Both the 115-mer and the 500-mer concentrations were then adjusted to exactly 1 x 10^-8 M by the addition of additional Taq buffer. These stocks of equivalent copy number of PCR products were then used for further investigation. Each of the stock solutions then was subdivided into four reaction tubes. The reaction tubes were adjusted to contain the following: Tube 1, 100 µg/ml AMIP; Tube 2, 400 µg/ml AMIP; Tube 3, 100 µg/ml AMDMIP; and Tube 4, 400 µg/ml AMDMIP. Each of these samples were again split into two portions, one part being irradiated for 15 minutes at room temperature with the CE-III device and the other part kept in the dark. Serial dilutions of the irradiated and the unirradiated targets were then carried out on these samples for 30 cycles in the presence of α-32P-CTP. Aliquots of these samples were analyzed on denaturing polyacrylamide gels. The PCR product bands were visualized by autoradiography, cut, and counted in a liquid scintillation counter.

| Substance | Solubility in 1 X TE [1] | sterilization sensitivity (molecules of carryover sterilized) (500-mer; 100 µg/ml) | sterilization sensitivity (molecules of carryover sterilized) (500-mer; 400 µg/ml) |
| --- | --- | --- | --- |
| 4'-Aminomethyl-4,5'-dimethylisopsoralen [AMDMIP] | > 22,700 * µg/ml | ≥ 6 x 10^9 carryover molecules | no signal in the irradiated dilution series |
| 5-Aminomethylisopsoralen [AMIP] | 21,000 µg/ml | more effectively sterilized than the 115-mer PCR product | ≥ 6 x 10^9 molecules of carryover |
